From patent US6271342A, “Sugar-modified cytostatics” (Bayer Aktiengesellschaft, priority 1995, dated 2001) come the findings set out here.

Structures can show the parent of a compound that is named as a salt.

In one test the test system is HT 29. Nature of the test: Growth inhibition test (MTT) for cytotoxic properties. The class given is cell-based, human. The conditions noted are these: Table 1a, glycoconjugates of batracyline. Here is the method: (§1) Growth Inhibition Test for Determination of the Cytotoxic Properties of Glycoconjugates of Batracyline and of Quinolone-a
(§2) The human colon cell lines SW 480 and HT 29 (ATCC no. CCL 228 and HBT-38) and the mouse melanoma cell line B 16 F 10 were cultured in Roux dishes in RPMI 1640 medium with addition of 10% FCS. The cultures were then trypsinized and taken up in RPMI plus 10% FCS to a cell count of 50,000 cells/ml. 100 μl of cell suspension/well were introduced into a 96 microwell plate and incubated for 1 day at 37° C. in a CO2 incubating cabinet. A further 100 μl of RPMI medium and 1 μl of dimethyl sulphoxide with the test substances were then added. The growth was checked after day 3 and day 6. 40 μl of MTT solution (3-(4,5-dimethylthiazol-2-yl)-2,5-diphenyltetrazoline bromide) with an initial concentration of 5 mg/ml of H2 O were added to each microwave. The plate was incubated for 5 hours in a CO2 incubating cabinet at 37° C. The medium was then sucked off and 100 μl of i-propanol/well were added. After shaking for 30 minutes with 100 μl of H2 O, the extinction was measured at 540 nm with a Titertek Multiskan MCC/340 (Flow).
(§3) The cytotoxic action of the glycoconjugates of batracyline described is shown in Table 1a as the IC50 value in each case for the SW 480 and HT 29 cell lines.

For another test, the system named is SW 480. The description is as above. The class given is cell-based, human. The conditions noted are these: Table 1a, glycoconjugates of batracyline. Here is the method:
as §1, §2, §3

In general, IC50 refers to the midpoint of a concentration-inhibition curve. A lower IC50 goes with greater potency. For `CO[C@@H]1[C@@H](O)[C@H](Oc2ccc(NC(=S)N[C@@H](CCCCN)C(=O)N[C@H](C)C(=O)Nc3ccc4c(c3)CN3C(=O)c5ccccc5C3=N4)cc2)O[C@H](CO)[C@@H]1OC` [Example 4.5, N-{N^α -[O-(3,4-Di-O-methyl-β-D-galactopyranosyl)-4-hydroxy-phenylamino-thiocarbonyl]-lysyl-D-alanyl}-batracyline], the IC50 in the test with HT 29 and in the test with SW 480 was 15 µM throughout.

Take `COC1C(O)C(C)OC(Oc2ccc(NC(=S)NCCCCC(NC(=S)Nc3ccc(OC4OC(C)C(O)C(OCC(=O)O)C4O)cc3)C(=O)NC(C)C(=O)Nc3ccc4nc5n(c(=O)c4c3)Cc3ccccc3-5)cc2)C1O` [Example 5.1, N-{N^α -[O-(3-O-Carboxymethyl-β-L-fucosyl)-4-hydroxyphenylaminothiocarbonyl] -N^ε -[O-(3-O-methyl-β-L-fucosyl)-4-hydroxyphenylaminothiocarbonyl]-lysyl-D-alanyl}-batracyline]: the IC50 was 45 µM with HT 29 and 55 µM in the test with SW 480.

On to `COC1C(C)OC(Oc2ccc(NC(=S)NCCCCC(NC(=S)Nc3ccc(OC4OC(C)C(OC)C(O)C4O)cc3)C(=O)NC(C)C(=O)Nc3ccc4nc5n(c(=O)c4c3)Cc3ccccc3-5)cc2)C(O)C1O` [Example 6.3, N-{N^α,N^ε -Bis-[O-(4-O-methyl-β-L-fucosyl)-4-hydroxy-phenylamino-thiocarbonyl]-lysyl-D-alanyl}-batracyline], for which the concentration for half-maximal inhibition (IC50) in the test on HT 29 turned out to be 105 µM; with SW 480, 70 µM.

Take `O=C(O)CO[C@H]1[C@@H](O)[C@@H](CO)O[C@@H](Oc2ccc(NC(=S)NCCCC[C@H](NC(=S)Nc3ccc(O[C@@H]4O[C@H](CO)[C@H](O)[C@H](OCC(=O)O)[C@H]4O)cc3)C(=O)Nc3ccc4nc5n(c(=O)c4c3)Cc3ccccc3-5)cc2)[C@@H]1O` [Example 6.28, N-{N^α,N^ε -Bis-[O-(3-O-carboxymethyl-β-D-galactopyranosyl)-4-hydroxy-phenylamino-thiocarbonyl]-lysyl}-batracyline, di-sodium salt]: the figures for the IC50 in the test with HT 29 and in the test on SW 480 were 25 µM and 40 µM, respectively.

Turning to `NC(=O)COC1C(O)C(CO)OC(Oc2ccc(NC(=S)NCCCCC(NC(=S)Nc3ccc(OC4OC(CO)C(O)C(OCC(N)=O)C4O)cc3)C(=O)Nc3ccc4nc5n(c(=O)c4c3)Cc3ccccc3-5)cc2)C1O` [Example 6.29, N-{N^α,N^ε -Bis-[O-(3-O-carbamoylmethyl-β-D-galactopyranosyl)-4-hydroxy-phenylamino-thiocarbonyl]-lysyl}-batracyline], the IC50 in the test with HT 29 was 130 µM; in the test with SW 480, 95 µM.

Turning to `COC1C(O)C(C)OC(Oc2ccc(NC(=S)Nc3ccc4c(c3)Cn3c-4nc4ccccc4c3=O)cc2)C1O` [Example 7.7, N-[O-(3-O-Methyl-β-L-fucosyl)-4-hydroxy-phenylamino-thiocarbonyl]-batr acyline], the IC50 in the test with HT 29 is more than 250 µM; with SW 480 it was 100 µM.

As to “N-{N-(O-(3-O-Methyl-β-L-fucosyl)-4-hydroxy-phenylamino-thiocarbonyl]-D -alanyl}-batracyline [Example 7.1]”, the IC50 in the test on HT 29 and in the test with SW 480 was 40 µM each time.

“N-{N-[O-(3,4-Di-O-methyl-β-D-galactopyranosyl)-4-hydroxy-phenylamino-t hio-carbonyl]-D-alanyl}-batracyline [Example 7.8]”: the IC50 was found to be 30 µM in the test on HT 29 and 40 µM in the test with SW 480.

For the compound “N-{N-[O-(3-O-Carbamoylmethyl-β-D-galactopyranosyl)-4-hydroxy-phenylami no-thiocarbonyl]-D-alanyl}-batracyline [Example 7.12]”, the 50% inhibitory concentration (IC50) in the test on HT 29 and in the test on SW 480 was 10 µM throughout.

As for “N-{N-[O-(3-O-Carboxymethyl-β-D-galactopyranosyl)-4-hydroxy-phenylamino -thiocarbonyl]-D-alanyl}-batracyline, sodium salt [Example 7.11]”, the IC50 was 25 µM in the test with HT 29 and 30 µM in the test with SW 480.

“N-{N-[O-(3-O-Carboxymethyl-β-L-fucosyl)-4-hydroxy-phenylamino-thiocarb onyl]-D-alanyl}-batracyline, sodium salt [Example 7.2]”: the values for the IC50 in the test with HT 29 and with SW 480 were 30 µM and 40 µM, respectively.

Turning to “N-{N-[O-(α-D-Mannopyranosyl)-4-hydroxy-phenylamino-thiocarbonyl]-lysy l-D-alanyl}-batracyline [Example 4.11]”, the IC50 in the test on HT 29 and in the test on SW 480 was 15 µM each time.

For “N-{N^α -[-(3-O-Carbamoylmethyl-β-D-galactopyranosyl)-4-hydroxy-phenylamino-t hiocarbonyl]-lysyl-D-alanyl}-batracyline [Example 4.10]”, the IC50 with HT 29 and with SW 480 was 30 µM each time.

Regarding “N-{N^α -[-(3-O-Carboxymethyl-β-D-galactopyranosyl)-4-hydroxy-phenylaminothio carbonyl]-N^ε -[O-(3,4-di-O-methyl-β-D-galactopyranosyl)-4-hydroxy-phenylamino-thio carbonyl]-lysyl-D-alanyl}-batracyline, sodium salt [Example 5.13]”, the IC50 with HT 29 worked out at 40 µM; in the test on SW 480 it was 20 µM.

In the test with SW 480, “N-{N^α,N^ε -Bis-[O-(3,4-O-dideoxy-β-D-galactopyranosyl)-4-hydroxy-phenylamino-th iocarbonyl]-lysyl-D-alanyl}-batracyline [Example 6.83]” displayed an IC50 of 90 µM.

Compound “N-{N^α,N^ε -Bis-[O-(3,4-di-O-methyl-β-D-galactopyranosyl)-4-hydroxy-phenylamino- thiocarbonyl]-lysyl-alanyl}-batracyline [Example 6.85]” yielded an IC50 in the test with SW 480 of 22 µM.

On to “N-{N^α,N^ε -Bis-[O-(3-O-carbamoylmethyl-β-D-galactopyranosyl)-4-hydroxy-phenylam ino-thiocarbonyl]-lysyl-seryl}-batracyline [Example 6.35]”, for which the IC50 in the test on SW 480 was 20 µM.

In the case of “N-{N^α,N^ε -Bis-[O-(3-O-carboxymethyl-β-D-galactopyranosyl)-4-hydroxy-phenylamin o-thiocarbonyl]-lysyl-seryl}-batracyline, di-sodium salt [Example 6.34]”, inhibition with SW 480 was half-maximal at 50 µM (IC50).

Turning to “N-{N^α,N^ε -Bis-[O-(3-O-carboxymethyl-β-L-fucosyl)-4-hydroxy-phenylamino-thiocar bonyl]-lysyl-diaminopropionyl}-batracyline, di-sodium salt [Example 6.21]”, half-maximal inhibition with SW 480 (IC50) was put at 150 µM. Compared with the last compound, the IC50 is about 3-fold higher.

On to “N-{N^α,N^ε -Bis-[O-(3-O-methyl-β-L-fucosyl)-4-hydroxy-phenylamino-thiocarbonyl]- lysyl-diaminopropionyl}-batracyline [Example 6.20]”, for which the half-maximal inhibitory concentration (IC50) in the test on SW 480 amounted to 80 µM.

The compound “N-{N^ε -[4-Hydroxyethylamino-2-[O-(2-O-methyl-β-L-fucosyl)-4-hydroxy-phenyla mino]-triazin-6-yl]-lysyl-alanyl}-batracyline, trifluoroacetate [Example 8.11]” registered an IC50 in the test on SW 480 of 45 µM. This IC50 lies about 1.8-fold lower than the previous one.

For “N-{N^ε -[-(3-O-Carbamoylmethyl-β-D-galactopyranosyl)-4-hydroxy-phenylamino-t hiocarbonyl]-lysyl-D-alanyl}-batracyline, trifluoroacetate [Example 3.19]”, in the test on SW 480, the IC50 worked out at 75 µM.

“N-{N^ε -[O-(3-O-(N-Propyl-carbamoylmethyl)-β-D-galactopyranosyl)-4-hydroxy-p henylamino-thiocarbonyl]-lysyl-D-alanyl}-batracyline, trifluoroacetate [Example 3.21]” displayed an IC50 in the test with SW 480 of 90 µM.

In the test with SW 480, “N-{N^ε -[O-(3-O-Carbamoylmethyl-α-D-mannopyranosyl)-4-hydroxy-phenylamino-t hiocarbonyl]-lysyl-D-alanyl}-batracyline, trifluoroacetate [Example 3.30]” displayed an IC50 of more than 250 µM.

As for “N-{N^ε -[O-(3-O-Carboxymethyl-α-D-mannopyranosyl)-4-hydroxy-phenylamino-thi ocarbonyl]-lysyl-D-alanyl}-batracyline, trifluoroacetate [Example 3.29]”, in the test with SW 480, the IC50 is 110 µM.

Compound “N-{N^ε -[O-(3-O-Carboxymethyl-β-D-galactopyranosyl)-4-hydroxy-phenylamino-th iocarbonyl]-lysyl-D-alanyl}-batracyline, trifluoroacetate [Example 3.18]” returned an IC50 in the test on SW 480 of 15 µM.

The compound “N-{N^ε -[O-(3-O-Methoxycarbonylmethyl-α-D-mannopyranosyl)-4-hydroxy-phenyla mino-thiocarbonyl]-lysyl-D-alanyl}-batracyline, trifluoroacetate [Example 3.28]” returned a concentration for half-maximal inhibition (IC50) in the test with SW 480 of 60 µM.

Turning to “N-{N^ε -[O-(3-O-Methyl-β-D-galactopyranosyl)-4-hydroxy-phenylamino-thiocarbo nyl]-lysyl-D-alanyl}-batracyline, trifluoroacetate [Example 3.14]”, in the test with SW 480, the IC50 was found to be 40 µM.

As to “N-{N^ε [O-(3-O-Methyl-α-D-mannopyranosyl)-4-hydroxy-phenylamino-thiocarbony l]-lysyl-D-alanyl}-batracyline, trifluoroacetate [Example 3.26]”, in the test on SW 480, the half-inhibitory concentration (IC50) is 50 µM.

In the test on SW 480, “N-{N^ε-[O-( 3,4-Dideoxy-β-D-galactopyranosyl)-4-hydroxy-phenylamino-thiocarbonyl] -lysyl-D-alanyl}-batracyline, trifluoroacetate [Example 3.23]” came in with an IC50 of 50 µM.
